US6544524B2, “Ethyl acetate extract from guignardia used to treat an individual infected by fungi or bacteria” (Fundacao Oswaldo Cruz - FIOCRUZ, priority 2001, dated 2003)

Tests used:
[1] = tested on: Staphylococcus aureus (ATCC 25923); assay: bioautographical method on a layer of agar; assay type: cell-based; settings: against S. aureus; Mueller-Hinton agar, 37° C., 24 hours, MTT
Procedure: (§1) The antimicrobial activity of this compound was detected employing the bioautographical method on a layer of agar (Rahalison,L.; Hamburger, M., Hostettmann, K.; Monod, M.; Frenk, E. Phytochemical Ananlysis.2.199-203.1991). The following micro-organisms were tested: Escherichia coli (ATCC 25922) and Staphylococcus aureus (ATCC 25923). The medium used was the Mueller-Hinton in agar (Oxoid). The cultures grew during the night in nutrient medium broth number 3 (Fluka). For the bioautographic test the cultures were standardised through successive dilutions in 10^5 cells/ml. The plaques were incubated at 37° C. for a period of 24 hours, sprayed with an aqueous solution of Methylthiazolyltetrazolium chloride (MTT)at 0.25% and then incubated for a further two hours at 37° C. The active fractions were detected under the form of white areas of inhibition on a lilac background.

[2] = tested on: Escherichia coli (ATCC 25922); assay: bioautographical method on a layer of agar; assay type: cell-based; settings: against E. coli; Mueller-Hinton agar, 37° C., 24 hours, MTT
Procedure: as §1

Q: What does the source list for CC(C)C1(C(=O)O)OC(=O)/C(=C/c2ccccc2)O1 (centres unmarked) [compound of the invention, (Z)-5-benzylidene-2-isopropyl-4-oxo-1.3-dioxolane-2-carboxyl acid]?
A: antibacterial activity [1]: 75 nM; antibacterial activity [2]: 150 nM
